In patent US20160304557A1, “Method for preventing or treating heart diseases by using a composition containing an isolated peptide” (Tunghai University, priority 2014, published 2016):

Key:
[1] = test system: Bcl-2 protein; assay: Western blot of Bcl-2 in heart tissue of high-fat diet mice; format: in vivo, C57BL/6 mice; settings: groups 3 to 5 (5, 10, 25 mg/kg/day intraperitoneally) in comparison of group 2 (high-fat diet, saline)
Experimental: (§1) The male C57BL/6 mice at the age of 6 weeks were divided into 5 groups for 8 mice in each group. […]
(§2) Protein concentration of the extract was determined by Lowry's protein assay method. […]
(§3) The protein extraction of the mice heart tissues from the each group in example 2 were processed by the western blot method in example 3 to observe the expressions of related apoptosis regulatory proteins in the mice heart tissues from the each group. The results were shown at FIGS. 2 and 3, wherein the tubulin was used for an internal control in FIG. 2 and the expression levels of related apoptosis regulatory proteins were calculated basing on the expression level of tubulin in each figure of FIG. 3.

[2] = test system: cytochrome C; assay: Western blot of cytochrome C in heart tissue of high-fat diet mice; format: in vivo, C57BL/6 mice; settings: groups 3 to 5 (5, 10, 25 mg/kg/day intraperitoneally) in comparison of group 2
Experimental: as §1, §2, §3

[3] = test system: caspase-3; assay: Western blot of activated caspase-3 in heart tissue of high-fat diet mice; format: in vivo, C57BL/6 mice; settings: groups 3 to 5 (5, 10, 25 mg/kg/day intraperitoneally) in comparison of group 2
Experimental: as §1, §2, §3

[4] = test system: nuclear factor of activated T-cells C3 (NFTA-C3); assay: Western blot of NFTA-C3 in heart tissue of high-fat diet mice; format: in vivo, C57BL/6 mice; settings: groups 3 to 5 (5, 10, 25 mg/kg/day intraperitoneally) in comparison of group 2
Experimental: as §1, §2
(§4) The protein extraction of the mice heart tissues from the each group in example 2 were processed by the western blot method in example 3 to observe the expressions of nuclear factor of activated T-cells C3 (NFTA-C3) and calcineurin in the mice heart tissues from the each group. The results were shown at FIGS. 4 and 5, wherein the tubulin was used for an internal control in FIG. 4 and the expression levels of NFTA-C3 and calcineurin were calculated basing on the expression level of tubulin in each figure of FIG. 5.

[5] = test system: calcineurin; assay: Western blot of calcineurin in heart tissue of high-fat diet mice; format: in vivo, C57BL/6 mice; settings: groups 3 to 5 (5, 10, 25 mg/kg/day intraperitoneally) in comparison of group 2
Experimental: as §1, §2, §4

[6] = test system: STAT-3, IL-6, MEK-5 and ERK-5; assay: Western blot of related signal transduction proteins of heart hypertrophy in heart tissue of high-fat diet mice; format: in vivo, C57BL/6 mice; settings: STAT-3, IL-6, MEK-5, ERK-5, groups 3 to 5 (5, 10, 25 mg/kg/day intraperitoneally) versus group 2
Experimental: as §1, §2
The protein extraction of the mice heart tissues from the each group in example 2 were processed by the western blot method in example 3 to observe the expressions of the related signal transduction proteins of heart hypertrophy including: STAT-3, IL-6, MEK-5 and ERK-5. The results were shown at FIGS. 6 and 7, wherein the tubulin was used for an internal control in FIG. 6 and the expression levels of the related signal transduction proteins of heart hypertrophy in the mice heart tissues from each group was calculated basing on the expression level of tubulin in FIG. 7.

[7] = test system: p38α protein; assay: Western blot of p38α protein in heart tissue of high-fat diet mice; format: in vivo, C57BL/6 mice; settings: groups 3 to 5 (5, 10, 25 mg/kg/day intraperitoneally) versus group 2
Experimental: (§5) The male C57BL/6 mice at the age of 6 weeks were divided into 5 groups for 8 mice in each group. The each group of mice were feed at 24±2° C. of temperature, humidity of 55±10% and 12/12 light cycle for 8 weeks, wherein the group 1 was control group on a normal diet (PMI Nutrition International, Brentwood, Mo., USA) and injected 0.9% saline intraperitoneally; the group 2 was fed high-fat diet to induce the mice into heart hypertrophy model and injected 0.9% saline intraperitoneally; the group 3 was fed high-fat diet and the peptide of SEQ ID NO.:1 was injected intraperitoneally with the dose of 5 mg/kg/day; the group 4 was fed high-fat diet and the peptide of SEQ ID NO.:1 was injected intraperitoneally with the dose of 10 mg/kg/day; the group 5 was fed high-fat diet and the peptide of SEQ ID NO.:1 was injected intraperitoneally with the dose of 25 mg/kg/day. […]
as §2
(§6) The protein extraction of the mice heart tissues from the each group in example 2 were processed by the western blot method in example 3 to observe the expressions of p38α protein and JNK. The results were shown at FIGS. 8 and 9, wherein the tubulin was used for an internal control in FIG. 8 and the expression levels of p38α protein and JNK were calculated basing on the expression level of tubulin in each figure of FIG. 9.

[8] = test system: JNK; assay: Western blot of JNK in heart tissue of high-fat diet mice; format: in vivo, C57BL/6 mice; settings: groups 3 to 5 (5, 10, 25 mg/kg/day intraperitoneally) versus group 2
Experimental: as §5, §2, §6

[9] = test system: FGF-2, ERK-1, UPA, MMP-2 and MMP-9; assay: Western blot of related proteins of cardiac fibrosis pathway in heart tissue of high-fat diet mice; format: in vivo, C57BL/6 mice; settings: MMP-2, MMP-9, groups 3 to 5 (5, 10, 25 mg/kg/day intraperitoneally) versus group 2
Experimental: as §1, §2
The protein extraction of the mice heart tissues from the each group in example 2 were processed by the western blot method in example 3 to observe the expressions of the related proteins of cardiac fibrosis pathway including: FGF-2, ERK-1, UPA, MMP-2 and MMP-9. The results were shown at FIGS. 10 and 11, wherein the tubulin was used for an internal control in FIG. 10 and the expression levels of FGF-2, ERK-1, UPA, MMP-2 and MMP-9 in the mice heart tissues from the each group was calculated basing on the expression level of tubulin in each figures of FIG. 11.

[10] = test system: ANP; assay: Western blot of ANP in heart tissue of high-fat diet mice; format: in vivo, C57BL/6 mice; settings: groups 3 to 5 (5, 10, 25 mg/kg/day intraperitoneally) in comparison of group 2
Experimental: as §1, §2
(§7) The protein extraction of the mice heart tissues from the each group in example 2 were processed by the western blot method in example 3 to observe the expressions of the indicator of heart hypertrophy and heart failure. The results were shown at FIGS. 12 and 13, wherein the tubulin was used for an internal control in FIG. 12 and the expression levels of the ANP and BNP in the mice heart tissues from the each group was calculated basing on the expression level of tubulin in each figures of FIG. 13.

[11] = test system: BNP; assay: Western blot of BNP in heart tissue of high-fat diet mice; format: in vivo, C57BL/6 mice; settings: groups 3 to 5 (5, 10, 25 mg/kg/day intraperitoneally) in comparison of group 2
Experimental: as §1, §2, §7

[12] = test system: myocardial cells; assay: H&E stained section of heart tissues of high-fat diet mice; format: in vivo; settings: groups 3 and 4 (15 and 25 mg/kg/day intraperitoneally) in comparison with group 2
Experimental: The male C57BL/6 mice at the age of 6 weeks were divided into 5 groups for 8 mice in each group. The each group of mice were feed at 24±2° C. of temperature, humidity of 55±10% and 12/12 light cycle for 8 weeks, wherein the group 1 was control group on a normal diet (PMI Nutrition International, Brentwood, Mo., USA) and injected 0.9% saline intraperitoneally; the group 2 was fed high-fat diet to induce the mice into heart hypertrophy model and injected 0.9% saline intraperitoneally; the group 3 was fed high-fat diet and the peptide of SEQ ID NO.:1 was injected intraperitoneally with the dose of 5 mg/kg/day; the group 4 was fed high-fat diet and the peptide of SEQ ID NO.:1 was injected intraperitoneally with the dose of 10 mg/kg/day; the group 5 was fed high-fat diet and the peptide of SEQ ID NO.:1 was injected intraperitoneally with the dose of 25 mg/kg/day. The injection period of each group of mice was between the third week to the sixth week of feeding period. The high-fat diet contained 60% of energy as fat.
The feeding method was the same with example 1. Mice were divided into 4 groups for feeding at different conditions. The intraperitoneal injection was performed between the third week and the sixth week of the feeding period. […]

SEQ ID NO.: 1: isolated peptide which amino acid sequence is SEQ ID NO.: 1; extracted from organisms, separated by hydrolysis or chemical synthesis (VHVV)
expression levels of Bcl-2 in the heart cell [1]: obviously increased
expression levels of cytochrome C in the heart cell [2]: obviously decreased
expression levels of activated caspase-3 in the heart cell [3]: obviously decreased
expression levels of NFTA-C3 in the heart cells [4]: obviously decreased
expression levels of calcineurin in the heart cells [5]: obviously decreased
expression levels of the related signal transduction proteins of heart hypertrophy in the heart tissues [6]: obviously lower
expression levels of p38α protein in the heart cells [7]: significantly lower
expression levels of JNK in the heart cells [8]: significantly lower
related proteins of cardiac fibrosis pathway in mice heart tissues [9]: obviously lower
expression levels of ANP in the heart tissues [10]: obviously decreased
expression levels of BNP in the heart tissues [11]: obviously decreased
arrangement of myocardial cells (H&E stained heart sections) [12]: more orderly and closely
